Marks after values point to notes of the source that are not given here.
Legend:
rat CFA pain model [1] = experiment: multi-dose oral pharmacodynamic study in rat CFA pain model (Von Frey PWT); format: in vivo
Experimental: The efficacy of Compound 1a and Compound 14 in the rat CFA pain model was evaluated using a mechanical allodynia method.
SD rats, 72 males, divided into 9 groups, were purchased from Beijing Vital River Laboratory Animal Technology Co., Ltd.
The experimental animals were adaptively reared for 3 to 7 days, and 8 of them were selected as a normal control group, and the other animals were injected with 50 µL of CFA in the center of the left hind paw for modeling. 24 hours after injection, the animals were tested for paw withdrawal threshold (PWT) basal values, and were divided into groups according to the basal values, which were solvent control group, indomethacin group, Compound 1a, 10 mpk group, Compound 1a, 30 mpk group, Compound 1a, 100 mpk group, Compound 14, 3 mpk group, Compound 14, 10 mpk group, and Compound 14, 30 mpk group, with 8 animals in each group. Subsequently, the animals were weighed and administered orally according to Table 6. All the animals were tested for paw withdrawal thresholds (PWT) using Von Frey 1, 2, and 4 hours after administration to further evaluate the efficacy of the compounds of the present invention.

[2] = metabolic stability in male rat liver microsomes; details: rat liver microsomes, pH 7.4
Experimental: Metabolic degradation of a test compound was analyzed using pooled human liver microsomes and male rat liver microsomes, respectively, at 37° C.
After pre-incubation at 37° C. for 5 min, NADPH (5 mM, 60 µL) was added to initiate a reaction. A fixed volume of the reaction mixture (30 µL) was sampled into the solution at fixed time points (0, 5, 15, 30, 60 min) to quench the reaction. After centrifugation (4000 rpm, 15 min), the supernatant (100 µL) was mixed with distilled water (100 µL) and then subjected to LC-MS/MS analysis to test the amount of the compound. A half-life was calculated using a first-order reaction kinetic equation (Ct = C0 × e^-ket, T½ = Ln2/ke).

human SSTR4 [3] = biological target: T1, human SSTR4 (Homo sapiens, UniProt P31391); experiment: radioligand binding assay, [125I]Somatostatin-14, CHO-K1 membranes
T1 construct: expressed in transfected cells
T1 sequence (P31391 whole entry): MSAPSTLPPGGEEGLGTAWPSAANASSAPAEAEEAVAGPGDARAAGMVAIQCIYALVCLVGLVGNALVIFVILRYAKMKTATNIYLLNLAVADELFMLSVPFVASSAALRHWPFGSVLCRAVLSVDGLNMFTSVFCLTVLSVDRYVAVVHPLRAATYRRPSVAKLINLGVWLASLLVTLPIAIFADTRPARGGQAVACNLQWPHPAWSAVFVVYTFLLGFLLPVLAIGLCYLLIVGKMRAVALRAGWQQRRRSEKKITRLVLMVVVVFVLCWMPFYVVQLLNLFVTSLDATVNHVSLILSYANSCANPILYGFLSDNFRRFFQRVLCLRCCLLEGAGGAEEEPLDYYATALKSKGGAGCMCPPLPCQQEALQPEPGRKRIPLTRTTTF
Experimental: (§1) Cell membranes were then filtered and washed, and protein-bound radioactivity was measured with a suitable instrument. The Ki values of corresponding targets were calculated using a Cheng-Prusoff formula.

human SSTR4 [4] = biological target: T1, human SSTR4; experiment: cell-based human SSTR4 cAMP assay (agonist activity); details: SSTR4, EC50 (nM), Flp-In-CHO-SSTR4 stable pool, Forskolin-stimulated cAMP
Experimental: Purpose of test: A cell-based human SSTR4 cAMP assay was used to determine the agonistic effect of the test compound on an SSTR 4 receptor.
Cell culture and reagent preparation: cell line: Flp-In-CHO-SSTR4 stable pool; complete medium: Ham’s F-12 K + 10% FBS + 1 × penicillin-streptomycin (PS) + 600 µg/ml hygromycin B; cell seeding medium: Ham’s F-12K + 10% FBS; assay buffer: 1 × HBSS + 20 mM HEPES + 0.1%BSA + 500 uM IBMX.
The Flp-In-CHO-SSTR 4 stable pool cell line was cultured in a complete medium at 37° C., 5% CO2 until a confluency of 70% to 90%.
After TrypLE digestion, the cells were resuspended in the seeding medium and seeded in a 384-well cell culture plate (384 PE culture plate), with 7,000 cells per well, and were cultured overnight at 37° C., 5% CO2.
The cell culture plate was taken out, inverted at 200 g at room temperature for 5 s to remove the medium, then quickly filled with 15 µl of an experimental buffer to each experimental well, and centrifuged at 200 g at room temperature for 5 s.
2.5 µl of the 8x compound working solution diluted in step 3 was added to corresponding test wells, which were centrifuged at 200 g for 5 s at room temperature, and incubated at 37° C. for 10 min.
A 4 uM Forskolin working solution (8x) was prepared.
The cell plate was taken out and equilibrated to room temperature, then filled with 2.5 µl of the 8x Forskolin working solution prepared in step 6 to corresponding test wells, followed by RT at 200 g for 5 s, and left to stand at 37° C. for 30 min.
A Eu-cAMP tracer and Uliaght-anti-cAMP were freeze-thawed, the Eu-cAMP tracer was diluted 50-fold with a detection buffer, and the Uliaght-anti-cAMP was dilutd 150-fold.
10 µl of the Eu-cAMP tracer was added to all experimental wells, then 10 µl of the detection buffer was added to NC wells, and 10 µl of the Uliaght-anti-cAMP was added to the remaining experimental wells.
The reaction plate was centrifuged at 200 g for 30 s at room temperature, and after standing at 25° C. for 1 h, data was collected using Envision.
Compound EC50 was calculated using a GraphPad nonlinear fitting formula: […]
X: Compound concentration log value; Y: HTRF ratio

human SSTR5 = biological target: T2, human SSTR5 (Homo sapiens, UniProt P35346); experiment: biochemical; details: 25° C., 2 hours, Cheng-Prusoff; read-out: Binding Ki (nM) SSTR5
T2 construct: expressed in transfected cells; host or cells: CHO-K1 (membrane homogenates)
T2 sequence (P35346 whole entry): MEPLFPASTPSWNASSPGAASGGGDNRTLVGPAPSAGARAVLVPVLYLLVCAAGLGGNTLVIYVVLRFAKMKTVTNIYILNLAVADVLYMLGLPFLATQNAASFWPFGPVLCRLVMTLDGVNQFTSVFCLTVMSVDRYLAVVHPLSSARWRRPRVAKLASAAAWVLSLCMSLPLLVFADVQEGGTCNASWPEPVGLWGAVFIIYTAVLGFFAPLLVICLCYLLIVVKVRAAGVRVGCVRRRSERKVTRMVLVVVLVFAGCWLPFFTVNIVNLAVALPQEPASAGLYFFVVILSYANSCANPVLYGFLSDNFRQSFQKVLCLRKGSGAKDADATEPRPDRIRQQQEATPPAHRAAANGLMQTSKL
Experimental: as §1

human SSTR2 = biological target: T3, human SSTR2 (Homo sapiens, UniProt P30874); experiment: biochemical; details: 25° C., 2 hours, Cheng-Prusoff; read-out: Binding Ki (nM) SSTR2
T3 construct: expressed in transfected cells; host or cells: CHO-K1 (membrane homogenates)
T3 sequence (P30874 whole entry): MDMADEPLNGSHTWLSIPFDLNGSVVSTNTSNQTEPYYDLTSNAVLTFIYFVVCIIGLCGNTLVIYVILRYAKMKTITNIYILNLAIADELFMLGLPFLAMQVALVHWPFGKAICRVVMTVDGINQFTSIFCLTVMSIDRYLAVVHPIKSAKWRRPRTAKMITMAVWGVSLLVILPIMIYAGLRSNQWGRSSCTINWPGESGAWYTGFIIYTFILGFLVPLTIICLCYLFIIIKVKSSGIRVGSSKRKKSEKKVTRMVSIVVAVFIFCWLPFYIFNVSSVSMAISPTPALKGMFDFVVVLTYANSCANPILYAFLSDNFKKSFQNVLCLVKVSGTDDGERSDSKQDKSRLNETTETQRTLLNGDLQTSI
Experimental: as §1

human SSTR1 = biological target: T4, human SSTR1 (Homo sapiens, UniProt P30872); experiment: biochemical; details: 25° C., 2 hours, Cheng-Prusoff; read-out: Binding Ki (nM) SSTR1
T4 construct: expressed in transfected cells; host or cells: CHO-K1 (membrane homogenates)
T4 sequence (P30872 whole entry): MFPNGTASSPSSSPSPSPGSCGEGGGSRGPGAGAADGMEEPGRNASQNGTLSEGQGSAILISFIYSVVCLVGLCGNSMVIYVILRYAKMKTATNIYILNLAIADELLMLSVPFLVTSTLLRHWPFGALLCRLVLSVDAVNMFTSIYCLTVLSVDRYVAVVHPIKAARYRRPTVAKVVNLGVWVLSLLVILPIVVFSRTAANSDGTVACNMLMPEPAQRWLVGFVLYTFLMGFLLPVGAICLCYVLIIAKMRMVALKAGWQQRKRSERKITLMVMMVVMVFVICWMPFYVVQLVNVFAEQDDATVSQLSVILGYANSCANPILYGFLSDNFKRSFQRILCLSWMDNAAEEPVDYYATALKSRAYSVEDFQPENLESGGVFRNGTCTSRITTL
Experimental: as §1

human SSTR3 = biological target: T5, human SSTR3 (Homo sapiens, UniProt P32745); experiment: biochemical; details: 25° C., 2 hours, Cheng-Prusoff; read-out: Binding Ki (nM) SSTR3
T5 construct: expressed in transfected cells; host or cells: CHO-K1 (membrane homogenates)
T5 sequence (P32745 whole entry): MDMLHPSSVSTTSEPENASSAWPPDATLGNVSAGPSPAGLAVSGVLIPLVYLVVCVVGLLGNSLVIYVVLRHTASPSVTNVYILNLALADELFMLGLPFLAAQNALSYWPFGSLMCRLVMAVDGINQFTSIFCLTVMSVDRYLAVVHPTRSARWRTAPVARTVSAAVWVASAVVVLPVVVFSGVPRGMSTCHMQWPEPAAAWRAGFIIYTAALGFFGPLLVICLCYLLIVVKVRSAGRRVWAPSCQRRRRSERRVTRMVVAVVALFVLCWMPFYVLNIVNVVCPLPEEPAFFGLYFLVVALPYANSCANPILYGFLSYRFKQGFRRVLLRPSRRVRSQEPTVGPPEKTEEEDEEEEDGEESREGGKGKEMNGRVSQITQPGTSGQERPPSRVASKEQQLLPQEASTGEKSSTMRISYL
Experimental: as §1

rat CFA pain model [5] = experiment: single-dose pharmacodynamic study in rat CFA pain model (Von Frey PWT); format: in vivo
Experimental: Each male SD rat (7-8 weeks old) was injected with 50 microliters of CFA in the center of the left hind paw. A PWT basal value test was conducted 24 hours after modeling, and the drugs were administered after randomization.
There were 8 animals in each group, and the animals were weighed and administered according to Table 4.
For all groups of animals, paw withdrawal thresholds (PWTs) of the animals were tested using Von Frey after 1 h and 3 h of single administration.

half-life at 1 µM [2]: > 3.11 h | Ki (human SSTR4 [3]): 0.51 nM | SSTR4 /SSTR 1 (human SSTR4 [3]; ratio of binding Ki values, selectivity): 879.5 | EC50 (human SSTR4 [4]): 0.057 nM | Ki (human SSTR5): > 5650 nM | Ki (human SSTR2): > 5310 nM | Ki (human SSTR1): 799 nM | Ki (human SSTR3): > 3420 nM
Compound: CSc1cccc2c(C(C)(C)NC(=O)[C@H]3[C@@H]4CNC[C@@H]43)nn(C)c12 [Compound 14, (1R,5S,6R)-N-(2-(1-Methyl-7-(Methylthio)-1H-Indazol-3-yl)Prop-2-yl)-3-Azabicyclo[3.1.0]Hexane-6-Carboxamide]
Paw withdrawal threshold (PWT(g)) (average) 0 hours (rat CFA pain model [1]; 3 mg/kg oral group): 3.118 g | Paw withdrawal threshold (PWT(g)) (average) 1 hour (rat CFA pain model [1]; 3 mg/kg oral): 3.535 g | Paw withdrawal threshold (PWT(g)) (average) 2 hours (rat CFA pain model [1]; 3 mg/kg oral): 5.369 g | Paw withdrawal threshold (PWT(g)) (average) 4 hours (rat CFA pain model [1]; 3 mg/kg oral): 5.335 g | Paw withdrawal threshold (PWT(g)) (average) 0 hours (rat CFA pain model [1]; 10 mg/kg oral group): 3.118 g | Paw withdrawal threshold (PWT(g)) (average) 1 hour (rat CFA pain model [1]; 10 mg/kg oral): 4.155 g | Paw withdrawal threshold (PWT(g)) (average) 2 hours (rat CFA pain model [1]; 10 mg/kg oral): 5.789 g | Paw withdrawal threshold (PWT(g)) (average) 4 hours (rat CFA pain model [1]; 10 mg/kg oral): 7.308 ** g | Paw withdrawal threshold (PWT(g)) (average) 0 hours (rat CFA pain model [1]; 30 mg/kg oral group): 3.079 g | Paw withdrawal threshold (PWT(g)) (average) 1 hour (rat CFA pain model [1]; 30 mg/kg oral): 4.051 g | Paw withdrawal threshold (PWT(g)) (average) 2 hours (rat CFA pain model [1]; 30 mg/kg oral): 5.683 g | Paw withdrawal threshold (PWT(g)) (average) 4 hours (rat CFA pain model [1]; 30 mg/kg oral): 8.213 **** g | inhibition of CFA-induced mechanical hyperalgesia (in words) (rat CFA pain model [1]; oral 3, 10, 30 mg/kg, 4 hours after administration): dose-dependently inhibit | onset dose (rat CFA pain model [1]; oral, inhibition of CFA-induced mechanical hyperalgesia): 10 mg/kg | Mechanical allodynia test (PWT (g), mean) Baseline (rat CFA pain model [5]; 10 mg/kg I.P. group, baseline 24 h after CFA, before administration): 3.566 g | Mechanical allodynia test (PWT (g), mean) 1 hour (rat CFA pain model [5]; 10 mg/kg I.P., 1 hour after single administration): 4.628 g | efficacy compared with Control Compound A (in words) (rat CFA pain model [5]; 10 mg/kg I.P., 3 hours after administration): significantly better than that of Control Compound A | Mechanical allodynia test (PWT (g), mean) 3 hours (rat CFA pain model [5]; 10 mg/kg I.P., 3 hours after single administration): 8.886 **** # g | inhibition of CFA-induced mechanical allodynia (in words) (rat CFA pain model [5]; 10 mg/kg I.P., single administration, FIG. 1): inhibited CFA-induced mechanical allodynia
